Assay results published in PubChem BioAssay AID743478 (Broad Institute, 2014).
“And” between values parts separate entries of the source, which are not always exact repeats. Equal values may be shown once. The source made the active and inactive calls.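 How the source made its calls: active means fitted curve falls past -35% activity change at a dose below twice the highest valid tested dose; inconclusive means no clear call, values can overlap the other calls; inactive means the rest, including activity opposite to the expected decrease.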

Legend:
[1] = test system: A673 viability, CellTiter-Glo ATP luminescence, 72 h; assay: A673 Ewing sarcoma cell viability loss – luminescence, retest at dose, dry powder, confirmation (AID 743478)
[2] = as above; conditions: A673 viability, CellTiter-Glo ATP luminescence, 72 h

| SMILES | AC35 [1] | other results |
| --- | --- | --- |
| COc1ccc(-c2ccc3c(c2)[C@H]2[C@H](CCN2S(=O)(=O)c2ccc(OC)cc2)[C@@H](CO)N3C)cc1 | 3.42 µM |  |
| CC[C@@]1(O)C(=O)OCc2c1cc1n(c2=O)Cc2cc3c(CN(C)C)c(O)ccc3nc2-1 | 0.0166 µM |  |
| Clc1ccc(-c2cnc3ccc(-c4ccccc4)cn23)cc1 |  | activity change, negative = cytotoxicity ([2]; at 6 µM (top of the series)): 1.33% (inactive) |
| CCc1c2c(nc3ccc(O)cc13)-c1cc3c(c(=O)n1C2)COC(=O)C3(O)CC (configuration not stated) | 0.002 µM |  |
| N#CC1=C(N)Oc2cc(N)ccc2C1c1cccc(Br)c1 (configuration not stated) | 0.104 µM |  |
| COc1ccc(-c2cc(NC=O)c3ncc(-c4ccc(OC)c(OC)c4)n3c2)cc1 | 0.545 µM |  |
| N#Cc1ccc(-c2ccc3c(c2)[C@H]2[C@H](CCN2S(=O)(=O)c2ccccc2F)[C@@H](CO)N3)cc1 | 12.5 µM |  |
| COc1ccccc1-c1nnc2n1N=C(c1ccc(O)c(O)c1)CS2 | 0.807 µM |  |
| COc1cc([C@@H]2c3cc4c(cc3[C@@H](O[C@@H]3O[C@@H]5CO[C@@H](C)O[C@H]5[C@H](O)[C@H]3O)[C@H]3COC(=O)[C@H]23)OCO4)cc(OC)c1O | 0.751 µM |  |
| CN1CCN(CCOc2cc(OC3CCOCC3)c3c(Nc4c(Cl)ccc5c4OCO5)ncnc3c2)CC1 | 22 µM |  |
| N#CC1=C(N)Oc2cc(N)ccc2C1c1ccc(Cl)cc1 (configuration not stated) |  | activity change, negative = cytotoxicity ([2]; at 26 µM (top of the series)): 0.262% (inactive) |
| Cc1ccccc1C1C(C#N)=C(N)Oc2cc(N)ccc21 (configuration not stated) | 13.1 µM |  |
| O=C(c1cc(Cc2n[nH]c(=O)c3ccccc23)ccc1F)N1CCN(C(=O)C2CC2)CC1 | 3.97 µM |  |
| CCC(C)(C)C(=O)O[C@H]1C[C@@H](C)C=C2C=C[C@H](C)[C@H](CC[C@@H]3C[C@@H](O)CC(=O)O3)[C@H]21 |  | activity change, negative = cytotoxicity ([2]; at 26 µM (top of the series)): -7.51% (inactive) |
| Cc1nc(Nc2ncc(C(=O)Nc3c(C)cccc3Cl)s2)cc(N2CCN(CCO)CC2)n1 | 5.45 µM |  |
| Cc1ccc([N+](=O)[O-])cc1S(=O)(=O)N(C)C | 3.97 µM |  |
| COc1ccc(C2C(C#N)=C(N)Oc3cc(N)ccc32)cc1 (configuration not stated) |  | activity change, negative = cytotoxicity ([2]; at 26 µM (top of the series)): -1.79% (inactive) |
| Cc1ccc(S(=O)(=O)N2CC[C@@H]3[C@@H](CO)Nc4ccc(-c5ccc(C#N)cc5)cc4[C@@H]32)cc1 | 19.8 µM |  |
| Cc1cccc(C2C(C#N)=C(N)Oc3cc(N)ccc32)c1 (configuration not stated) | 0.486 µM |  |
| O=C(Cc1ccc(-c2ccc(OCCN3CCOCC3)cc2)cn1)NCc1ccccc1 | < 0.0235 µM |  |
| Cc1c([C@H](C(Cl)Cl)[C@H](O)[C@H]2C[C@H](C)C(=O)O2)ccc2c1C(=O)[C@H]1[C@H]2C[C@@H](Br)[C@@]23O[C@@H](CO[C@H]2O)C[C@]13C | < 0.05 µM |  |
| CCN(CCO)CCCOc1ccc2c(Nc3cc(CC(=O)Nc4cccc(F)c4)[nH]n3)ncnc2c1 |  | activity change, negative = cytotoxicity ([2]; at 1.6 µM (top of the series)): -35.3% (inactive) |
| COc1ccc(C2=Nn3c(nnc3-c3ccccc3Cl)SC2)cc1OC | 0.392 µM |  |
| C[C@@]1(C(=O)Nc2ccc(F)nc2)CCCN1c1nc(Nc2cc(C3CC3)[nH]n2)c2cccn2n1 | 0.296 µM |  |
| CN1c2ccc(-c3ccc(C#N)cc3)cc2[C@H]2[C@H](CCN2S(=O)(=O)c2ccc(F)cc2)[C@H]1CO |  | activity change, negative = cytotoxicity ([2]; at 26 µM (top of the series)): -15.2% (inactive) |
| N#CC1=C(N)Oc2cc(N)ccc2C1c1ccc2ccccc2c1 (configuration not stated) | 11.9 µM |  |

| SMILES | AC35 [1] | other results |
| --- | --- | --- |
| COc1cccc(S(=O)(=O)N2CC[C@@H]3[C@@H](CO)Nc4ccc(-c5ccc(C#N)cc5)cc4[C@@H]32)c1 | 21.4 µM |  |
| COc1ccccc1-c1nnc2n1N=C(c1ccc3c(c1)OCO3)CS2 | 0.0164 µM |  |
| N#CC1=C(N)Oc2ccc3ccccc3c2C1c1cccc(F)c1 (configuration not stated) | 0.526 µM |  |
| COc1ccc(S(=O)(=O)N2CC[C@@H]3[C@@H](CO)Nc4ccc(-c5ccc(C#N)cc5)cc4[C@@H]32)cc1 | 4.03 µM |  |
| CC1(C)CC(c2nc(-c3ccc4ccc(-c5ccccc5)nc4c3)c3c(N)nccn23)C1 | 2.02 µM |  |
| CC(C)(O)CCc1ccc(O)c2c(=O)c3c(O)c4c(cc3oc12)O[C@H]1OC=C[C@@]41O | 0.0326 µM |  |
| CCCCc1ccc2nc(NC(=O)OC)[nH]c2c1 | < 0.05 µM |  |
| COc1ccc(C2=Nn3c(nnc3-c3ccccc3F)SC2)cc1OC | 3.18 µM |  |
| COc1ccc(S(=O)(=O)N2CC[C@@H]3[C@@H](CO)Nc4ccc(-c5cccc(C#N)c5)cc4[C@@H]32)cc1 | 3.95 µM |  |
| COc1cccc(C2C(C#N)=C(N)Oc3cc(N)ccc32)c1 (configuration not stated) | 0.444 µM |  |
| COc1ccc(C(=O)CC2(O)C(=O)Nc3c(Cl)ccc(Cl)c32)cc1 (configuration not stated) | 2.25 µM |  |
| COc1ccc(C2=Nn3c(nnc3-c3ccccc3OC)SC2)cc1OC | 0.0556 µM |  |
| O=C(Nc1c(Cl)cncc1Cl)c1ccc(OC(F)F)c(OCC2CC2)c1 |  | activity change, negative = cytotoxicity ([2]; at 26 µM (top of the series)): 7.47% (inactive) |
| COc1ccccc1C1C(C#N)=C(N)Oc2cc(N)ccc21 (configuration not stated) |  | activity change, negative = cytotoxicity ([2]; at 26 µM (top of the series)): -4.28% (inactive) |
| Cc1cc(Nc2cc(N3CCN(C)CC3)nc(Sc3ccc(NC(=O)C4CC4)cc3)n2)n[nH]1 | 0.271 µM |  |
| COc1ccc(C2=Nn3c(nnc3-c3ccccc3)SC2)cc1OC |  | activity change, negative = cytotoxicity ([2]; at 26 µM (top of the series)): -5.89% (inactive) |
| COc1cc(C2C(C#N)=C(N)Oc3cc(N(C)C)ccc32)cc2c1OCO2 (configuration not stated) | 0.0823 µM |  |
| CCOC(=O)CCNc1cc(N2CCc3ccccc3CC2)nc(-c2ccccn2)n1 | 14.8 µM |  |
| COc1ccc(C2CNC(=O)C2)cc1OC1CCCC1 (configuration not stated) |  | activity change, negative = cytotoxicity ([2]; at 26 µM (top of the series)): -1.09% (inactive) |
| N#CC1=C(N)Oc2cc(N)ccc2C1c1cccc(F)c1 (configuration not stated) | 0.907 µM |  |
| N#CC1=C(N)Oc2cc(N)ccc2C12C(=O)Nc1ccc(Br)cc12 (configuration not stated) | 18.9 µM |  |
| COc1ccc(S(=O)(=O)N2CC[C@@H]3[C@@H](CO)N(C)c4ccc(-c5ccc(F)cc5)cc4[C@@H]32)cc1 | 3.08 µM |  |
| N#CC1=C(N)Oc2cc(OC(=O)c3ccccc3)ccc2C1c1cccc(Br)c1 (configuration not stated) | 2.46 µM |  |
| COc1ccc(S(=O)(=O)N2CC[C@@H]3[C@H](CO)Nc4ccc(-c5ccc(C#N)cc5)cc4[C@@H]32)cc1 | 6.54 µM |  |
| COc1ccc(CNc2nc(N3CCC[C@H]3CO)ncc2C(=O)NCc2ncccn2)cc1Cl |  | activity change, negative = cytotoxicity ([2]; at 26 µM (top of the series)): 0.28% (inactive) |
| CC[C@]1(O)CC2CN(CCc3c([nH]c4ccccc34)[C@@](C(=O)OC)(c3cc4c(cc3OC)N(C=O)[C@H]3[C@@](O)(C(=O)OC)[C@H](OC(C)=O)[C@]5(CC)C=CCN6CC[C@]43[C@@H]65)C2)C1 (some centres not stated) | < 0.0015 µM |  |

| SMILES | AC35 [1] | other results |
| --- | --- | --- |
| C=C([C@@H](O)[C@@H](C)O)[C@@H](OC)[C@]1(C)Cc2cc3cc(O[C@H]4CC(OC5CC(O)C(O)C(C)O5)C(O)C(C)O4)cc(O)c3c(O)c2C(=O)[C@H]1OC1CC(OC2CC(OC3CC(C)(O)C(O)C(C)O3)C(O)C(C)O2)C(O)C(C)O1 (some centres not stated) | 0.0368 µM |  |
| N#CC1=C(N)Oc2cc(O)ccc2C1c1cccc(Br)c1 (configuration not stated) | 1.84 µM |  |
| COc1ccccc1S(=O)(=O)N1CC[C@@H]2[C@@H](CO)Nc3ccc(-c4ccc(C#N)cc4)cc3[C@@H]21 | 11.6 µM |  |
| N#CC1=C(N)Oc2cc3c(cc2C1c1cccc(Br)c1)OCO3 (configuration not stated) | 0.0288 µM |  |
| COc1ccc(OC)c(-c2nnc3n2N=C(c2ccc(OC)c(OC)c2)CS3)c1 | < 0.0235 µM and 0.0163 µM |  |
| CC(C)N1c2ccccc2C(c2ccc(F)cc2)C1/C=C/C(O)CC(O)CC(=O)O (configuration not stated) | 1.42 µM |  |
| CN1c2ccc(-c3ccc(C#N)cc3)cc2[C@H]2[C@H](CCN2S(=O)(=O)c2cccc(F)c2)[C@H]1CO | 3.65 µM |  |
| C[C@]1(c2nc3c(C(N)=O)cccc3[nH]2)CCCN1 |  | activity change, negative = cytotoxicity ([2]; at 26 µM (top of the series)): -26% (inactive) |
| Nc1ccn([C@@H]2O[C@H](CO)[C@H](O)C2O)c(=O)n1 (some centres not stated) | 0.066 µM |  |
| CN(C)c1ccc2c(c1)OC(N)=C(C#N)C2c1cccc(F)c1 (configuration not stated) | 0.0177 µM |  |
| COc1cccc2c1C(=O)c1c(O)c3c(c(O)c1C2=O)C[C@@](O)(C(=O)CO)C[C@@H]3O[C@H]1C[C@H](N)[C@H](O)[C@H](C)O1 | < 0.05 µM |  |
| Cn1cc(-c2ccncc2)c(-c2ccc(OCc3ccc4ccccc4n3)cc2)n1 | 21.3 µM |  |
| CN(C(=O)CCCOc1ccc2[nH]c(=O)ccc2c1)C1CCCCC1 | 20.7 µM |  |
| Cc1ccc(C2C(C#N)=C(N)Oc3cc(N)ccc32)cc1 (configuration not stated) |  | activity change, negative = cytotoxicity ([2]; at 26 µM (top of the series)): -0.754% (inactive) |
| COc1ccc(-c2ccc3c(c2)[C@H]2[C@H](CCN2S(=O)(=O)c2ccc(OC)cc2)[C@@H](CO)N3)cc1 | 3.95 µM |  |
| COc1ccc(S(=O)(=O)N(C(C)=O)c2ccc(OC(C)=O)c3ccccc23)cc1[N+](=O)[O-] | 0.46 µM |  |
| N#CC1=C(N)Oc2cc(N)ccc2C1c1ccccc1Cl (configuration not stated) | 12.3 µM |  |
| COc1ccc(-c2cc(NC(C)=O)c3ncc(-c4ccc(OC)c(OC)c4)n3c2)cc1 |  | activity change, negative = cytotoxicity ([2]; at 26 µM (top of the series)): -6.5% (inactive) |
| Nc1ncnc2c1c(-c1cccc(OCc3ccccc3)c1)cn2C1CC(CN2CCCC2)C1 (configuration not stated) | 3.76 µM |  |
| N#Cc1ccc(-c2ccc3c(c2)[C@H]2[C@H](CCN2S(=O)(=O)c2cccc(F)c2)[C@@H](CO)N3)cc1 | 5.43 µM |  |
| CCC(C)C(=O)OC1CC(C)C=C2C=CC(C)C(CCC(O)CC(O)CC(=O)O)C21 (configuration not stated) | 25.2 µM |  |
| N#CC1=C(N)Oc2cc(N)ccc2C1c1ccccc1 (configuration not stated) | 12.2 µM |  |
| Clc1ccccc1-c1nnc2n1N=C(c1ccc3c(c1)OCO3)CS2 | 0.408 µM |  |
| O=P1(NCCCl)OCCCN1CCCl (configuration not stated) |  | activity change, negative = cytotoxicity ([2]; at 50 µM (top of the series)): 0.494% (inactive) |
| COc1ccc(NC(=O)Nc2ccc3c(c2)C(=O)N([C@@H](C)CO)C[C@H](C)[C@H](CN(C)Cc2ccc4c(c2)OCO4)O3)cc1 |  | activity change, negative = cytotoxicity ([2]; at 12 µM (top of the series)): -32.3% (inactive) |
